Assay [1] deals with IL-4 stimulated expression of CD23 in human Ramos B cells (JAK-1 and JAK-3). As to the kind of experiment: Assay for Ramos B-Cell Line Stimulated with IL-4 (CD23 upregulation, FACS). Format: cell-based. As to conditions: Ramos B cells stimulated with IL-4, CD23 expression by FACS, read-out: IC50, Example 41. In short, it runs like this: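 Human Ramos B cells in RPMI with 5% serum were pre-incubated with compound or DMSO for 1 h at 37 °C, then stimulated with IL-4 at a final 50 units/mL for 20-24 h. CD23 upregulation was measured by anti-CD23-PE staining and flow cytometry, and IC50 values were calculated.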
In general terms: Flow cytometry measures light scatter and fluorescence of single cells or particles in a stream.

The subject of the next assay is Primary human T-cells. As to the kind of experiment: Primary Human T-Cell Proliferation Assay Stimulated with IL-2 (CellTiter-Glo). The assay is classed as cell-based. As to conditions: primary human T-cells stimulated with IL-2, proliferation, read-out: IC50, Example 42. Put shortly: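 Peripheral blood T-cells pre-activated with anti-CD3/anti-CD28 and IL-2 were washed free of IL-2, then cultured with compound plus IL-2 for 72 hours at 37° C, duplicate wells. Viability read as ATP by CellTiter-Glo luminescence; IC50 reported.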

Each structure is given as a SMILES string. Where two headings read alike, the source gives them in different places.

Broadly, the IC50 is the point on the concentration scale where inhibition reaches its midpoint.

`NS(=O)(=O)c1cc(Nc2ncc(F)c(Nc3ccc(C(F)(F)F)c(Cl)c3)n2)ccc1Cl` [VI-44, N2-(3-Aminosulfonyl-4-chlorophenyl)-N4-(3-chloro-4-trifluoromethyl-phenyl)-5-fluoro-2,4-pyrimidinediamine]: the half-inhibitory concentration (IC50) turned out to be 0.429 µM in assay [1] (Homo sapiens, Ramos) and 7.31 µM in the assay on Primary human T-cells (Homo sapiens, T-cell).

For the compound `Cc1ccc(Nc2ncc(F)c(Nc3ccc(OCC(F)(F)F)cc3)n2)cc1S(N)(=O)=O` [VI-46, N2-(3-Aminosulfonyl-4-methylphenyl)-5-fluoro-N4-(4-trifluoromethylmethyleneoxyphenyl)-2,4-pyrimidinediamine], the IC50 in assay [1] turned out to be 0.144 µM; in the assay on Primary human T-cells it was 1.26 µM.

Consider `NS(=O)(=O)c1cc(Nc2ncc(F)c(Nc3ccc(OCC(F)(F)F)cc3)n2)ccc1Cl` [VI-48, N2-(3-Aminosulfonyl-4-chlorophenyl)-5-fluoro-N4-(4-trifluoromethylmethyleneoxyphenyl)-2,4-pyrimidinediamine], for which the half-inhibitory concentration (IC50) turned out to be 0.315 µM in assay [1] and 2.24 µM in the assay with Primary human T-cells.

For the compound `C#CCOc1cccc(Nc2nc(Nc3ccc(C)c(S(N)(=O)=O)c3)ncc2F)c1` [VI-57, N2-(3-Aminosulfonyl-4-methylphenyl)-5-fluoro-N4-[3-(prop-2-ynyloxy)phenyl]-2,4-pyrimidinediamine], the IC50 is 0.202 µM in assay [1] (Homo sapiens, Ramos) and 1.18 µM in the assay with Primary human T-cells (Homo sapiens, T-cell).

For `C#CCOc1ccc(Nc2nc(Nc3ccc(C)c(S(N)(=O)=O)c3)ncc2F)cc1C` [VI-58, N2-(3-Aminosulfonyl-4-methylphenyl)-5-fluoro-N4-[3-methyl-4-(prop-2-ynyloxy)phenyl]-2,4-pyrimidinediamine], the IC50 was 0.164 µM in assay [1] (Homo sapiens, Ramos) and 0.724 µM with Primary human T-cells (Homo sapiens, T-cell).

Take `C#CCN(CC#C)c1ccc(Nc2nc(Nc3ccc(C)c(S(N)(=O)=O)c3)ncc2F)cc1` [VI-67, N2-(3-Aminosulfonyl-4-methylphenyl)-N4-{4-[bis(prop-2-ynyl)amino]phenyl}-5-fluoro-2,4-pyrimidinediamine]: the 50% inhibitory concentration (IC50) is 0.147 µM in assay [1] (Homo sapiens, Ramos) and 0.718 µM in the assay with Primary human T-cells (Homo sapiens, T-cell).

Take `C#CCOC(=O)NCc1ccc(Nc2nc(Nc3ccc(C)c(S(N)(=O)=O)c3)ncc2F)cc1` [VI-73, N2-(3-Aminosulfonyl-4-methylphenyl)-5-fluoro-N4-{4-[(prop-2-ynyloxy)carbonylaminomethyl]phenyl}-2,4-pyrimidinediamine]: the IC50 is 0.251 µM in assay [1] (Homo sapiens, Ramos) and 2.01 µM in the assay on Primary human T-cells (Homo sapiens, T-cell).

Regarding `C#CCNS(=O)(=O)c1ccc(Nc2nc(Nc3cccc(S(N)(=O)=O)c3)ncc2F)cc1` [VI-75, N2-(3-Aminosulfonylphenyl)-5-fluoro-N4-[4-(prop-2-ynylaminosulfonyl)phenyl]-2,4-pyrimidinediamine], the IC50 in assay [1] (Homo sapiens, Ramos) was 0.904 µM; with Primary human T-cells (Homo sapiens, T-cell), 0.929 µM.

As for `C#CCNS(=O)(=O)c1ccc(Nc2nc(Nc3ccc(C)c(S(N)(=O)=O)c3)ncc2F)cc1` [VI-76, N2-(3-Aminosulfonyl-4-methylphenyl)-5-fluoro-N4-[4-(prop-2-ynylaminosulfonyl)phenyl]-2,4-pyrimidinediamine], the IC50 in assay [1] (Homo sapiens, Ramos) came to 0.549 µM; in the assay on Primary human T-cells (Homo sapiens, T-cell), 0.783 µM.

Take `NS(=O)(=O)c1ccc(Nc2ncc(F)c(Nc3ccc(CCCF)cc3)n2)cc1` [VI-82, N2-(4-Aminosulfonylphenyl)-5-fluoro-N4-[4-(3-fluoropropyl)phenyl]-2,4-pyrimidinediamine]: the IC50 in assay [1] (Homo sapiens, Ramos) is 0.212 µM; in the assay with Primary human T-cells (Homo sapiens, T-cell), 1.63 µM.

In the case of `Cc1ccc(Nc2ncc(F)c(Nc3ccc(CCCO)cc3)n2)cc1S(N)(=O)=O` [VI-87, N2-(3-Aminosulfonyl-4-methylphenyl)-5-fluoro-N4-[4-(3-hydroxypropyl)phenyl]-2,4-pyrimidinediamine], the IC50 in assay [1] (Homo sapiens, Ramos) was found to be 0.541 µM; with Primary human T-cells (Homo sapiens, T-cell) it was 1.24 µM.

On to `Cc1ccc(Nc2ncc(F)c(Nc3ccc(CCCCO)cc3)n2)cc1S(N)(=O)=O` [VI-90, N2-(3-Aminosulfonyl-4-methylphenyl)-5-fluoro-N4-[4-(4-hydroxybutyl)phenyl]-2,4-pyrimidinediamine], for which the IC50 in assay [1] (Homo sapiens, Ramos) worked out at 1.07 µM; in the assay with Primary human T-cells (Homo sapiens, T-cell), 3.97 µM.

Regarding `NS(=O)(=O)c1ccc(Nc2ncc(F)c(Nc3ccc(CCCCF)cc3)n2)cc1` [VI-91, N2-(4-Aminosulfonylphenyl)-5-fluoro-N4-[4-(4-fluorobutyl)phenyl]-2,4-pyrimidinediamine], the IC50 in assay [1] (Homo sapiens, Ramos) turned out to be 0.221 µM; in the assay on Primary human T-cells (Homo sapiens, T-cell) it was 1.23 µM.

Take `Cc1ccc(Nc2ncc(F)c(Nc3ccc(CCCCF)cc3)n2)cc1S(N)(=O)=O` [VI-93, N2-(3-Aminosulfonyl-4-methylphenyl)-5-fluoro-N4-[4-(4-fluorobutyl)phenyl]-2,4-pyrimidinediamine]: the IC50 stood at 0.11 µM in assay [1] (Homo sapiens, Ramos) and 0.56 µM with Primary human T-cells (Homo sapiens, T-cell).

Take `N#Cc1cc(Nc2nc(Nc3cccc(S(N)(=O)=O)c3)ncc2F)ccc1F` [VI-98, N2-(3-Aminosulfonylphenyl)-N4-(3-cyano-4-fluorophenyl)-5-fluoro-2,4-pyrimidinediamine]: the IC50 in assay [1] (Homo sapiens, Ramos) was 0.136 µM; with Primary human T-cells (Homo sapiens, T-cell), 0.986 µM.

Consider `Cc1ccc(Nc2nc(Nc3cccc(S(N)(=O)=O)c3)ncc2F)cc1C#N` [VI-99, N2-(3-Aminosulfonylphenyl)-N4-(3-cyano-4-methylphenyl)-5-fluoro-2,4-pyrimidinediamine], for which the IC50 turned out to be 0.0685 µM in assay [1] (Homo sapiens, Ramos) and 0.617 µM with Primary human T-cells (Homo sapiens, T-cell).

As for `COc1ccc(Nc2nc(Nc3ccc(S(N)(=O)=O)cc3)ncc2F)cc1Cl` [VI-106, N2-(4-Aminosulfonylphenyl)-5-fluoro-N4-(4-methoxy-3-chlorophenyl]-2,4-pyrimidinediamine], the IC50 in assay [1] (Homo sapiens, Ramos) stood at 0.0622 µM; in the assay with Primary human T-cells (Homo sapiens, T-cell), 1.2 µM.

As for `NS(=O)(=O)c1ccc(Nc2ncc(F)c(Nc3ccc(Cl)c(Cl)c3)n2)cc1` [VI-109, N2-(4-Aminosulfonylphenyl)-N4-(3,4-dichlorophenyl)-5-fluoro-2,4-pyrimidinediamine], the IC50 was 0.136 µM in assay [1] (Homo sapiens, Ramos) and 2.87 µM in the assay on Primary human T-cells (Homo sapiens, T-cell).

Take `COc1ccc(Nc2nc(Nc3cccc(S(N)(=O)=O)c3)ncc2F)nc1N` [VII-7, N2-(3-Aminosulfonylphenyl)-N4-(2-amino-3-methoxypyrid-6-yl)-5-fluoro-2,4-pyrimidinediamine]: the half-maximal inhibitory concentration (IC50) in assay [1] (Homo sapiens, Ramos) stood at 0.502 µM; in the assay on Primary human T-cells (Homo sapiens, T-cell), 3.92 µM.

For `COc1ccc(Nc2nc(Nc3ccc(Cl)c(S(N)(=O)=O)c3)ncc2F)nc1N` [VII-8, N2-(3-Aminosulfonyl-4-chlorophenyl)-N4-(2-amino-3-methoxypyrid-6-yl)-5-fluoro-2,4-pyrimidinediamine], the IC50 in assay [1] (Homo sapiens, Ramos) amounted to 0.399 µM; in the assay on Primary human T-cells (Homo sapiens, T-cell) it was 8.63 µM.

Take `CNC(=O)N1CCCc2cc(Nc3nc(Nc4cccc(S(N)(=O)=O)c4)ncc3F)ccc21` [VII-20, N2-(3-Aminosulfonylphenyl)-5-fluoro-N4-[1-(methylaminocarbonyl)-1,2,3,4-tetrahydroquin-6-yl]-2,4-pyrimidinediamine]: the values for the IC50 (in assay [1]; in the assay with Primary human T-cells) were 0.286 µM and 0.698 µM, respectively.

As to `Cc1ccc(Nc2ncc(C)c(Nc3ccc4c(c3)N(C)C(=O)CS4)n2)cc1S(N)(=O)=O` [VII-33, N2-(3-Aminosulphonyl-4-methylphenyl)-5-methyl-N4-(4-methyl-3-oxo-benzo[1,4]thiazin-6-yl)-2,4-pyrimidinediamine], the IC50 came out at 0.0289 µM in assay [1] (Homo sapiens, Ramos) and 0.0184 µM in the assay on Primary human T-cells (Homo sapiens, T-cell).

As to `Cc1cnc(Nc2ccc(S(N)(=O)=O)cc2)nc1Nc1ccc2c(c1)N(C)C(=O)CS2` [VII-34, N2-(4-Aminosulphonylphenyl)-5-methyl-N4-(4-methyl-3-oxo-benzo[1,4]thiazin-6-yl)-2,4-pyrimidinediamine], the IC50 amounted to 0.045 µM in assay [1] (Homo sapiens, Ramos) and 0.0225 µM in the assay with Primary human T-cells (Homo sapiens, T-cell).

The values are drawn from patent US11827628B2, “Compositions and methods for inhibition of the JAK pathway” (Rigel Pharmaceuticals, Inc., priority 2005, dated 2023).
